For 12 compounds, IC50 results are on record in patent US10689378B2, “Triazolopyridine compounds and uses thereof” (Novartis AG, priority 2016, dated 2020).

Structures are written as SMILES.

Assay [1] has as its system H3K27 methylation in G401 cell. As to the kind of experiment: ELISA (H3K27 methylation) assay in G401 cells. In kind it is cell-based, human. The note with it: Homo sapiens, G-401, read-out: (c) IC50, ELISA Qualified. The protocol:
Compounds of the present invention were assessed for their ability to inhibit PRC2 activity in a pentameric complex of EZH2, SUZ12, EED, Rbap48 and AEBP in biochemical assays. The ability of compounds of the present invention to inhibit cellular activity of PRC2 was assessed by analysing histone H3 lysine 27 methylation in human cell lines. The ability of compounds of the present invention to inhibit cancers was derived from their ability to modulate activity in human cancer cell lines bearing specific dependence to PRC2 activity to maintain cancerous growth.
ELISA (H3K27 Methylation) Assay
Representative compounds of the present invention were serially and separately diluted 3-fold in DMSO to obtain a total of eight or twelve concentrations. Then the compounds were added to G401 cell cultured in 384-well plate at 1:500 dilution to obtain the highest concentration of 20 μM. The cells were further cultured for 48 h before ELISA procedure.
Histone extraction: Cells, in 384-well plate, were washed with PBS (10×PBS buffer (80 g NaCl (Sigma, S3014), 2 g KCl (Sigma, 60128), 14.4 g Na2HPO4 (Sigma, S5136), 2.4 g KH2PO4 (Sigma, P9791) to 1 L water, pH to 7.4) and lysed with the addition of lysis buffer (0.4N HCl; 45 μL per well). The plate was gently agitated at 4° C. for 30 min. The cell lysate was neutralized with neutralization buffer (0.5 M sodium phosphate dibasic, pH 12.5, 1 mM DTT; 36 μL per well). The plate was agitated to ensure the lysates were well mixed prior to the ELISA protocol.
ELISA protocol: Cell lysates were transferred to the wells of a 384-well plate and the final volume was adjusted to 50 μL per well with PBS. The plate was sealed, centrifuged at 2,000 rpm for 2 min and incubated at 4° C. for about 16 h. The plate was washed with TBST buffer (1×TBS (10×TBS: 24.2 g Tris (Sigma, T6066), 80 g NaCl (Sigma, S3014) to 1 L of water and adjust pH to 7.6 with HCl) with 0.1% Tween-20). Blocking buffer (TBST, 5% BSA; 50 μL per well) was added and the plate was incubated for 1 h at rt. The blocking buffer was removed and primary antibody was added (30 μL per well). The following dilutions were performed with blocking buffer: for anti-H3K27me3 antibody (Cell Signaling Technology, #9733), dilution was 1:1000; for anti-H3K27me2 antibody (Cell Signaling Technology, #9288), dilution was 1:100; for anti-H3 antibody (Abcam, Cat #24834), dilution was 1:1000. The primary antibody was incubated in the plate at rt for 1 h. The wells were washed with TBST and incubated with secondary antibody for 1 h at rt. For secondary antibodies, the following dilutions were carried out with blocking buffer: anti-rabbit antibody (Jackson ImmunoResearch, #111-035-003), dilution was 1:2000; and anti-mouse antibody (Cell signaling technology, #7076), dilution was 1:1000. After 1 h of incubation at rt, the wells were washed with TBST. ECL substrate (Pierce, #34080) was added at 30 μL per well and the plates were centrifuged at 2,000 rpm for 2 min. The signal was read using a PerkinElmer Envision Reader. The H3K27 methylation readouts were normalized using H3 signal and then percentage inhibition was calculated against the samples treated with DMSO. The data were then fit to a dose response curve using the program Helios to get the IC50 values of the test compound.
A general note: An ELISA detects its analyte on a solid surface through an enzyme-linked reagent.

Assay [2] deals with T1, EED (1-441)-His protein (Homo sapiens, UniProt O75530).
T1 construct: 30 nM EED (1-441)-His protein
As to the kind of experiment: EED-H3K27Me3 peptide competition binding assay by AlphaScreen. The note with it: read-out: (a) IC50, EED Alphascreen binding Qualified. The protocol: EED-H3K27Me3 Peptide Competition Binding Assay by AlphaScreen (α-Screen)
To assess the compounds' potency in the EED-H3K27Me3 competition binding assay, compounds were serially diluted 3-fold in DMSO to obtain a total of twelve concentrations. Then compounds at each concentration (75 nL of each) were transferred by Mosquito into a 384-well Perkin Elmer ProxiPlate 384 plus plates. 8 uL of solutions containing 30 nM EED (1-441)-His protein and 15 nM biotin-H3K27Me3 (19-33) peptide in the buffer (25 mM HEPES, pH 8, 0.02% Tween-20, 0.5% BSA) were added to the wells and then incubated with compound for 20 min. AlphaScreen detection beads mix was prepared immediately before use by mixing nickel chelate acceptor beads and streptavidin donor beads in a 1:1 ratio (Perkin Elmer, Product No. 6760619C/M/R) into the buffer described above. Then 4 μL of detection beads mix was added to the plate and incubate in the dark at the rt for 1 h. The final concentration of donor and acceptor beads was 10 μg/mL for each. Plates were read on EnVision (PerkinElmer) using the AlphaScreen setting adapted for optimal signal detection with a 615 nm filter, after sample excitation at 680 nm. The emission signal at 615 nm was used to quantify compounds inhibition. AlphaScreen signals were normalized based on the reading coming from the positive (maximum signal control) and negative controls (minimum signal control) to give percentage of activities left. The data were then fit to a dose response equation using the program Helios (Novartis) to get the IC50 values. Helios is a Novartis in-house assay data analysis software using the methods described by Normolle, D. P., Statistics in Medicine, 12:2025-2042 (1993); Formenko, I. et al, Computer Methods and Programs in Biomedicine, 82, 31-37 (2006); Sebaugh, J. L., Pharmaceutical Statistics, 10:128-134 (2011); Kelly, C. et al., Biometrics, 46(4):1071-1085 (1990); and Kahm, M. et al., Journal of Statistical Software, 33 (7): (2010) (grofit: Fitting Biological Growth Curves with R, pages 1-21, available at http://www.jstatsoft.org/).
A general note: Alpha assays give light when donor and acceptor beads are brought close together.

T1 sequence (O75530 whole entry): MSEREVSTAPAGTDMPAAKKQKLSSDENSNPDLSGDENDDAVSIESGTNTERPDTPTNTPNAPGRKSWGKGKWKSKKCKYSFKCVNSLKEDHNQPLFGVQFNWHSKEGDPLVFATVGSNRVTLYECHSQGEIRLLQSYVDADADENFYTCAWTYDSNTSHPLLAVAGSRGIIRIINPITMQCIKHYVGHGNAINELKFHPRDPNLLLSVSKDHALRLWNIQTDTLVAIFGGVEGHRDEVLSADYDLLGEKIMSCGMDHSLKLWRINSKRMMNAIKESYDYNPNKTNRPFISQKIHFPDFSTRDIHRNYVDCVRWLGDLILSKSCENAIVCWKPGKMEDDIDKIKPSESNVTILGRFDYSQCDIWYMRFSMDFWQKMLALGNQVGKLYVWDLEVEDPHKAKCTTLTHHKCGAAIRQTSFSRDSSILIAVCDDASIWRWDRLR

Turning to `COc1ccccc1CNc1ccc(-c2ccc(NC(C)=O)cc2)c2nncn12` [Example 80, N-(4-(5-((2-methoxybenzyl)amino)-[1,2,4]triazolo[4,3-a]pyridin-8-yl)phenyl) acetamide], the concentration for half-maximal inhibition (IC50) (as a rule, the concentration that inhibits the measured activity by half) came to 779 nM in assay [1] and 224 nM in assay [2].
In the case of `COc1ccc(F)cc1CNc1ccc(-c2ccc(CN(C)C)cc2)c2nncn12` [Example 81, 8-(4-((dimethylamino)methyl)phenyl)-N-(5-fluoro-2-methoxybenzyl)-[1,2,4]triazolo[4,3-a]pyridin-5-amine], the IC50 in assay [1] was determined as 928 nM; in assay [2] it was 387 nM.
For `COc1cc(F)ccc1CNc1ccc(-c2ccc(S(=O)(=O)N(C)C)cc2)c2nncn12` [Example 84, 4-(5-((4-fluoro-2-methoxybenzyl)amino)-[1,2,4]triazolo[4,3-a]pyridin-8-yl)-N,N-dimethylbenzene sulfonamide], in that order: 1180 nM and 177 nM.
For the compound `COc1cc(F)ccc1CNc1ccc(-c2ccc(NS(C)(=O)=O)cc2)c2nncn12` [Example 85, N-(4-(5-((4-fluoro-2-methoxybenzyl)amino)-[1,2,4]triazolo[4,3-a]pyridin-8-yl)phenyl)methane sulfonamide], the IC50 in assay [1] came to 1030 nM; in assay [2], 186 nM.
With `COc1c(F)cccc1CNc1ccc(-c2ccc(CN(C)C)cc2)c2nncn12` [Example 86, 8-(4-((dimethylamino)methyl)phenyl)-N-(3-fluoro-2-methoxybenzyl)-[1,2,4] triazolo[4,3-a]pyridin-5-amine], the values for the IC50 in assay [1] and in assay [2] were 529 nM and 218 nM, respectively.
For `COc1cc(F)ccc1CNc1ccc(-c2ccc(N3CCN(C(C)C)CC3)nc2)c2nncn12` [Example 88, N-(4-fluoro-2-methoxybenzyl)-8-(6-(4-isopropylpiperazin-1-yl)pyridin-3-yl)-[1,2,4] triazolo[4,3-a]pyridin-5-amine], in that order: 500 nM and 178 nM.
For `COc1cc(F)ccc1CNc1ccc(-c2ccc(S(N)(=O)=O)cc2)c2nncn12` [Example 89, 4-(5-((4-fluoro-2-methoxybenzyl)amino)-[1,2,4]triazolo[4,3-a]pyridin-8-yl)benzenesulfonamide], in that order: 1480 nM and 132 nM.
On to `COc1cc(F)ccc1CNc1ccc(-c2cnc(N3CCN(C(C)C)CC3)c(C(F)(F)F)c2)c2nncn12` [Example 90, N-(4-fluoro-2-methoxybenzyl)-8-(6-(4-isopropylpiperazin-1-yl)-5-(trifluoromethyl)pyridin-3-yl)-[1,2,4]triazolo[4,3-a] pyridin-5-amine], for which the IC50 was found to be 2130 nM in assay [1] and 410 nM in assay [2].
As for `COc1cc(F)ccc1CNc1ccc(-c2ccncc2)c2nncn12` [Example 92, N-(4-fluoro-2-methoxybenzyl)-8-(pyridin-4-yl)-[1,2,4]triazolo[4,3-a]pyridin-5-amine], the IC50 is 299 nM in assay [1] and 138 nM in assay [2].
For `COc1cc(F)ccc1CNc1ccc(-c2cccnc2)c2nncn12` [Example 93, N-(4-fluoro-2-methoxybenzyl)-8-(pyridin-3-yl)-[1,2,4]triazolo[4,3-a]pyridin-5-amine], in that order: 400 nM and 162 nM.
For `COc1ccccc1CNc1ccc(-c2cncc(S(C)(=O)=O)c2)c2nncn12` [Example 95, N-(2-methoxybenzyl)-8-(5-(methylsulfonyl)pyridin-3-yl)-[1,2,4]triazolo[4,3-a] pyridin-5-amine], in that order: 164 nM and 177 nM.
`COc1cc(F)ccc1CNc1ccc(-c2ccc(C(=O)N3CCCC3)cc2)c2nncn12` [Example 96, (4-(5-((4-fluoro-2-methoxy benzyl)amino)-[1,2,4]triazolo[4,3-a]pyridin-8-yl)phenyl)(pyrrolidin-1-yl) methanone]: the IC50 came to 253 nM in assay [1] and 105 nM in assay [2].
